In one series the target is T1, human FXR protein (Homo sapiens, UniProt Q96RI1).
T1 construct: purchased Invitrogen
Briefly: FXR agonist binding ability: time-resolved fluorescence (LanthaScreen) FXR/coactivator assay. The format is biochemical. To be noted: GST-labeled human FXR, fluorescein-labeled coactivator, TR-FRET. The procedure: FXR Agonist Binding Ability Evaluation of the activation effect of the compound of the present invention with regard to the binding of FXR to its co-stimulatory factor SRC-1 was conducted by using time-resolved analytical techniques. Protein: glutathione-S-transferase (GST)-labeled human FXR protein (Invitrogen) • 2. Coactivator: Fluorescein-labeled steroid receptor coactivator (SRC2-2) (Invitrogen) • 3. Detection reagent: LanthaScreen Time-Resolved Fluorescence Analysis Kit (Invitrogen) • 1. The compound was prepared into a 10 mM DMSO stock solution and stored in a −20° C. refrigerator for a long time. • 2. The compound was diluted to 1 mM before the experiment, and then the compound was diluted 3-fold to 10 concentration points using DMSO. Then use buffer G (Invitrogen, PV4553) to dilute these 10 concentration points by 50 times to become a working fluid. Add 10 μl of each working solution to each well of a 384-well plate. • 3. Prepare a human FXR protein solution (final concentration 20 nM) in chilled buffer G and add 5 μl of human FXR protein solution to each well of a 384-well plate. • 4. Prepare a mix of buffer G containing 2 μM fluorescein-labeled steroid receptor coactivator and 20 nM GST antibody. • 5. Add 5 μl of the mixture prepared in Step 4 to a 384-well plate. • 6. Centrifuge the 384-well plate at 1000 g for 1 minute. • 7. Incubate for 1 hour at room temperature in the dark. • 8. Read the 384-well plate at 520 nm and 495 nm on an Envision 2104 plate reader. • 9. Calculate the EC50 value of the activation effect of the compound.

In a further series the target is T2, hFXR-LBD-GAL4 (Homo sapiens, UniProt Q96RI1).
T2 construct: GAL4 (fusion partner); host or cells: HEK293T
T2 sequence (Q96RI1 262-486 limits assumed): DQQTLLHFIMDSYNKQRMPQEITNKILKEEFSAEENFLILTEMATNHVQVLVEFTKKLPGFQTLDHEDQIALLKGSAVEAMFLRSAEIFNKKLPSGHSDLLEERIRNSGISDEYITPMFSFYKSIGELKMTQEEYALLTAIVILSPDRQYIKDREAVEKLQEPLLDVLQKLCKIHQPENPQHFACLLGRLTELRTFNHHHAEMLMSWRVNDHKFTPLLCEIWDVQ
Briefly: FXR agonist transactivation ability: luciferase reporter gene in HEK293T. The format is cell-based. As to conditions: read-out: Cell activity. The procedure:
FXR Agonist Transactivation Ability
Evaluation of the ability of the compound of the present invention to promote FXR transactivation was conducted by using luciferase reporter gene expression technology.
• 1. Cell line: HEK293T (Invitrogen) • 2. Expression plasmid: pBIND-hFXR-LBD-GAL4 (Promega), pGL4.35-luciferase (Promega) • 3. Cell culture medium: 10% serum and penicillin/streptomycin double antibody in DMEM medium • 4. Detection reagent: Steady-Glo fluorescence detection system (Promega). • 5. Transfection reagent: TransIT-293 Transfection Reagent (MIRUS BIO)
• 1. The compound was prepared into a 10 mM DMSO stock solution and stored in a −20° C. refrigerator for a long time. • 2. Resuscitation HEK293T cells were seeded in 10 cm culture dishes at a concentration of 5.5×10^6 and incubated for 16 hours at 37° C. in a 5% CO2 incubator. • 3. Return the transfection reagent to room temperature before transfection. The Trans-IT solution was added dropwise to Opti-MEM, and mixed by inversion for 5 minutes; the expression plasmid was added, mixed by inversion, and incubated at room temperature for 20 minutes. • 4. Add the transfection mixture from Step 3 to the prepared 10 cm dish in Step 2 and incubate for 5-6 hours in a 5% CO2 incubator. • 5. Dilute the compound 3 folds to 10 concentration points using DMSO; add 25 nl of compound per well in a 384-well plate using an Echo 550 sonic pipette; add HEK293T cells to the 384-well plate at a concentration of 15,000 cells/well; 37° C. incubate for 16-20 hours in a 5% CO2 incubator. • 6. Add 25 μl of Steady-Glo Fluorescent Reagent to each well and read the fluorescence on an Envision 2104 plate reader. • 7. Calculate the EC50 value of the activation of the compound.

Series [1] in a line: Mouse pharmacokinetic studies (IV and PO). The format is in vivo, Male CD-1 mice. As to conditions: for PO F: PO 10 mg/kg vs IV 2.0 mg/kg; for Vd / AUC(0-t) / clearance / half-life / Cmax / Tmax: male, CD-1, plasma; for clearance: read-out: IV Cl; for half-life: read-out: IV T½ (converted). The procedure:
Mouse Pharmacokinetic Studies
Typical PK study procedure. For i.v. PK studies, a group of three fasted Male CD-1 mice were dosed with the compound (2.0 mg/kg, 0.50 mg/mL in 5% solutol in saline, clear solution), and 0.02 mL blood was collected at 0.0830, 0.250, 0.500, 1.00, 2.00, 4.00, 8.00, 24.0 h. For PO PK studies, a group of three fasted Male CD-1 mice were dosed with the compound (10 mg/kg, 1 mg/mL in 5% solutol in saline, clear solution), and 0.02 mL blood was collected at 0.250, 0.500, 1.00, 2.00, 4.00, 6.00, 8.00, 24.0 h. The blood was collected into EP tubes (containing EDTA K20.85-1.15 mg) and centrifuged at 3,000 g or 3,200 g at 4° C. for 10 min) and plasma was isolated and divided into two vials. One was used for bioanalysis and one was kept as backup. The samples were kept at −60° C. or below, until being analyzed by LC MS/MS. The samples were analyzed with AB SCIEX INSTRUMENTS LC-MS/MS AU-Triple Quad 6500 Plus and data were processed with Phoenix WinNonlin 6.3 (IV-noncompartmental model and PO-noncompartmental model).

Setting [2] is: IV 2.0 mg/kg, read-out: IV AUC 0-t.
Where [3] appears, read: PO 10 mg/kg, read-out: PO AUC 0-t.

Structures are written as SMILES. Where two headings read alike, the source gives them in different places. A value given as a limit tells only on which side of the number the result lay.

`Cc1nc(Oc2cccc3cc(OCc4c(-c5c(Cl)cccc5Cl)noc4C4CC4)ccc23)ccc1C(=O)O` [Compound 27, 6-((6-((5-cyclopropyl-3-(2,6-dichlorophenyl)isoxazol-4-yl)methoxy)naphthalen-1-yl)oxy)-2-methylnicotinic acid] returned an EC50 on human FXR protein below 50 nM. The EC50 at hFXR-LBD-GAL4 was below 200 nM. The “PO F” value in series [1] is reported as 33.2%. Further, in series [1] (IV 2.0 mg/kg), the Vd was 0.897 L/kg, the clearance is 19.7 mL/min/kg and the half-life is 96.6 min. In series [1] (setting [2]), the AUC(0-t) worked out at 1690 ng·h/mL. Moreover, in series [1] (PO 10 mg/kg), the concentration peaked (Cmax) at 2080 ng/mL and the Tmax was determined as 30 min. Also, in series [1] (setting [3]), the AUC(0-t) stood at 2780 ng·h/mL.

In turn, `Cc1nc(Oc2c(F)ccc3cc(OCc4c(-c5c(Cl)cccc5Cl)noc4C4CC4)ccc23)ccc1C(=O)O` [Compound 45, 6-((6-((5-cyclopropyl-3-(2,6-dichlorophenyl)isoxazol-4-yl)methoxy)-2-fluoronaphthalen-1-yl)oxy)-2-methylnicotinic acid] gave an EC50 at human FXR protein below 50 nM. The EC50 on hFXR-LBD-GAL4 is below 200 nM. Also, in series [1], the “PO F” value is reported as 15.7%. In series [1] (IV 2.0 mg/kg), the Vd turned out to be 1.04 L/kg, the clearance was found to be 22.1 mL/min/kg and the half-life was 84 min. The AUC(0-t) in series [1] (setting [2]) turned out to be 1500 ng·h/mL. In series [1] (PO 10 mg/kg), the concentration peaked (Cmax) at 627 ng/mL and the Tmax was 60 min. Besides, the AUC(0-t) in series [1] (setting [3]) was determined as 1140 ng·h/mL.

`O=C(O)c1ccc(Oc2cccc3cc(OCc4c(-c5c(Cl)cccc5Cl)noc4C4CC4)ccc23)nc1` [Compound 22, 6-((6-((5-cyclopropyl-3-(2,6-dichlorophenyl)isoxazol-4-yl)methoxy)naphthalen-1-yl)oxy)nicotinic acid] registered an EC50 at human FXR protein below 50 nM. Moreover, the EC50 at hFXR-LBD-GAL4 is below 200 nM. Besides, the “PO F” value in series [1] is listed as 32%. Moreover, in series [1] (IV 2.0 mg/kg), the Vd turned out to be 1.84 L/kg, the clearance was 73.8 mL/min/kg and the half-life was 50.2 min. Also, in series [1] (setting [2]), the AUC(0-t) was determined as 448 ng·h/mL. For the same compound, in series [1] (PO 10 mg/kg), the concentration peaked (Cmax) at 894 ng/mL and the Tmax turned out to be 30 min. In addition, the AUC(0-t) in series [1] (setting [3]) was determined as 718 ng·h/mL.

For the compound `O=C(O)c1ccc(Oc2ccc3c(OCc4c(-c5c(Cl)cccc5Cl)noc4C4CC4)cccc3c2)nc1` [Compound 36, 6-((5-((5-cyclopropyl-3-(2,6-dichlorophenyl)isoxazol-4-yl)methoxy)naphthalen-2-yl)oxy)nicotinic acid], the results for the EC50 on human FXR protein and on hFXR-LBD-GAL4 were 50 to 500 nM and above 1000 nM, respectively.

Turning to `O=C(O)c1cnc(Oc2ccc3cc(OCc4c(-c5c(Cl)cccc5Cl)noc4C4CC4)ccc3c2)s1` [Compound 4, 2-((6-((5-cyclopropyl-3-(2,6-dichlorophenyl)isoxazol-4-yl)methoxy)naphthalen-2-yl)oxy)thiazole-5-carboxylic acid], the EC50 was 50 to 500 nM at human FXR protein and above 1000 nM on hFXR-LBD-GAL4.

Take `O=C(O)c1cnc(Oc2ccc3cc(OCc4c(-c5c(Cl)cccc5Cl)noc4C4CC4)ccc3c2)cn1` [Compound 7, 5-((6-((5-cyclopropyl-3-(2,6-dichlorophenyl)isoxazol-4-yl)methoxy)naphthalen-2-yl)oxy)pyrazine-2-carboxylic acid]: the EC50 is above 500 nM on human FXR protein and above 1000 nM on hFXR-LBD-GAL4.

Turning to `O=C(O)c1ccc(Oc2ccc3cc(OCc4c(-c5c(Cl)cccc5Cl)noc4C4CC4)ccc3c2)nn1` [Compound 2, 6-((6-((5-cyclopropyl-3-(2,6-dichlorophenyl)isoxazol-4-yl)methoxy)naphthalen-2-yl)oxy)pyridazine-3-carboxylic acid], the EC50 at human FXR protein was 50 to 500 nM; at hFXR-LBD-GAL4, above 1000 nM.

As for `O=C(O)c1ccccc1Oc1ccc2cc(OCc3c(-c4c(Cl)cccc4Cl)noc3C3CC3)ccc2c1` [Compound 14, 2-((6-((5-cyclopropyl-3-(2,6-dichlorophenyl)isoxazol-4-yl)methoxy)naphthalen-2-yl)oxy)benzoic acid], the values for the EC50 on human FXR protein and on hFXR-LBD-GAL4 were 50 to 500 nM and above 1000 nM, respectively.

For `Cc1nc(Oc2cccc3c(F)c(OCc4c(-c5c(Cl)cccc5Cl)noc4C4CC4)ccc23)ccc1C(=O)O` [Compound 39, 6-((6-((5-cyclopropyl-3-(2,6-dichlorophenyl)isoxazol-4-yl)methoxy)-5-fluoronaphthalen-1-yl)oxy)-2-methylnicotinic acid], the EC50 at human FXR protein was below 50 nM; on hFXR-LBD-GAL4, below 200 nM.

On to `O=C(O)c1ccc(Oc2ccc3cc(OCc4c(-c5ccccc5OC(F)(F)F)noc4C4CC4)ccc3c2)nc1` [Compound 17], for which the EC50 is above 500 nM at human FXR protein and above 1000 nM on hFXR-LBD-GAL4.

Consider `COc1cc(Cl)c(-c2noc(C3CC3)c2COc2ccc3cc(Oc4ccc(C(=O)O)cn4)ccc3c2)c(Cl)c1` [Compound 19, 6-((6-((5-cyclopropyl-3-(2,6-dichloro-4-methoxyphenyl)isoxazol-4-yl)methoxy)naphthalen-2-yl)oxy)nicotinic acid], for which the EC50 on human FXR protein was above 500 nM; on hFXR-LBD-GAL4, above 1000 nM.

For the compound `O=C(O)c1ccc(Oc2ccc3cc(OCc4c(-c5c(Cl)cccc5Cl)noc4C4CC4)ccc3c2)nc1` [Compound 33], the EC50 at human FXR protein was 50 to 500 nM; at hFXR-LBD-GAL4, below 200 nM.

As for `O=C(O)c1ccc(Oc2ccc3ccc(OCc4c(-c5c(Cl)cccc5Cl)noc4C4CC4)c(F)c3c2)nc1` [Compound 38, 6-((7-((5-cyclopropyl-3-(2,6-dichlorophenyl)isoxazol-4-yl)methoxy)-8-fluoronaphthalen-2-yl)oxy)nicotinic acid], the figures for the EC50 at human FXR protein and on hFXR-LBD-GAL4 were below 50 nM and 500 to 1000 nM, respectively.

As to `Cc1nc(Oc2ccc3c(F)c(OCc4c(-c5c(Cl)cccc5Cl)noc4C4CC4)ccc3c2)ccc1C(=O)O` [Compound 37, 6-((6-((5-cyclopropyl-3-(2,6-dichlorophenyl)isoxazol-4-yl)methoxy)-5-fluoronaphthalen-2-yl)oxy)-2-methylnicotinic acid], the EC50 on human FXR protein was 50 to 500 nM; on hFXR-LBD-GAL4 it was above 1000 nM.

For `O=C(O)c1ccc(Oc2c(Cl)ccc3cc(OCc4c(-c5c(Cl)cccc5Cl)noc4C4CC4)ccc23)nc1` [Compound 42, 6-((2-chloro-6-((5-cyclopropyl-3-(2,6-dichlorophenyl)isoxazol-4-yl)methoxy)naphthalen-1-yl)oxy)nicotinic acid], the EC50 at human FXR protein is above 500 nM; at hFXR-LBD-GAL4, above 1000 nM.

These data come from patent US12600716B2 (Gannex Pharma Co., Ltd., priority 2020, dated 2026).
